Assays:
[1] = biological target: T1, GPR68 (Homo sapiens, UniProt Q15743); assay: FLIPR functional screen; type: cell-based; conditions: antagonist mode
T1 construct: Millipore

[2] = biological target: T2, M5 (Homo sapiens, UniProt P08912); assay: FLIPR functional screen; type: cell-based; conditions: antagonist mode
T2 construct: Millipore

[3] = biological target: T3, OT (Homo sapiens, UniProt P30559); assay: FLIPR functional screen; type: cell-based; conditions: antagonist mode
T3 construct: Millipore

[4] = biological target: T4, CB2 (Homo sapiens, UniProt P34972); assay: FLIPR functional screen; type: cell-based; conditions: antagonist mode
T4 construct: Millipore

[5] = biological target: T5, CYSLT1 (Homo sapiens, UniProt Q9Y271); assay: FLIPR functional screen; type: cell-based; conditions: antagonist mode
T5 construct: Millipore

[6] = biological target: T6, OPRK1 (Homo sapiens, UniProt P41145); assay: FLIPR functional screen; type: cell-based; conditions: antagonist mode
T6 construct: Millipore

[7] = biological target: T7, 5-HT1B (Homo sapiens, UniProt P28222); assay: FLIPR functional screen; type: cell-based; conditions: antagonist mode
T7 construct: purchased Millipore (outsourced screen)

[8] = biological target: T8, CCR6 (Homo sapiens, UniProt P51684); assay: FLIPR functional screen; type: cell-based; conditions: antagonist mode
T8 construct: Millipore

[9] = biological target: T9, Prostanoid EP4 (Homo sapiens, UniProt P35408); assay: Competitive radioligand binding (MDS Pharma)
T9 construct: host or cells: EP4-expressing membrane preparations
Protocol: Radioligand EP4 binding. The radioligand EP4 binding assay measures displacement of radiolabelled PGE2 from EP4-expressing membrane preparations. Radioligand EP4 binding assay kit was purchased from Millipore, and the assay was performed according to instructions of the manufacture.

[10] = biological target: T10, 5-HT1A (Homo sapiens, UniProt P08908); assay: FLIPR functional screen; type: cell-based; conditions: antagonist mode
T10 construct: purchased Millipore (outsourced screen)

[11] = biological target: T11, ADRB1 (Homo sapiens, UniProt P08588); assay: FLIPR functional screen; type: cell-based; conditions: antagonist mode
T11 construct: purchased Millipore (outsourced screen)

[12] = biological target: T12, PAR4 (Homo sapiens, UniProt Q96RI0); assay: FLIPR functional screen; type: cell-based; conditions: antagonist mode
T12 construct: Millipore

[13] = biological target: T13, Leukotriene, Cysteinyl CysLT1 (Homo sapiens, UniProt Q9Y271); assay: Competitive radioligand binding (MDS Pharma)
T13 construct: purchased MDS Pharma (outsourced assay)

[14] = biological target: T14, ETB (Homo sapiens, UniProt P24530); assay: FLIPR functional screen; type: cell-based; conditions: antagonist mode
T14 construct: Millipore

[15] = biological target: T15, Leukotriene, BLT (LTB4) (Homo sapiens, UniProt Q15722); assay: Competitive radioligand binding (MDS Pharma)
T15 construct: purchased MDS Pharma (outsourced assay) 250510

[16] = biological target: T16, OPRD1 (Homo sapiens, UniProt P41143); assay: FLIPR functional screen; type: cell-based; conditions: antagonist mode
T16 construct: Millipore

[17] = biological target: T17, PK1 (Homo sapiens, UniProt Q8TCW9); assay: FLIPR functional screen; type: cell-based; conditions: PK-1, antagonist mode
T17 construct: Millipore

[18] = biological target: T18, NOP (Homo sapiens, UniProt P41146); assay: FLIPR functional screen; type: cell-based; conditions: antagonist mode
T18 construct: Millipore

[19] = biological target: T19, GPR40 (Homo sapiens, UniProt O14842); assay: FLIPR functional screen; type: cell-based; conditions: antagonist mode
T19 construct: Millipore

[20] = biological target: T20, EP1 (Homo sapiens, UniProt P34995); assay: FLIPR functional screen; type: cell-based; conditions: antagonist mode
T20 construct: Millipore

[21] = biological target: T21, NTR1 (Homo sapiens, UniProt P30989); assay: FLIPR functional screen; type: cell-based; conditions: antagonist mode
T21 construct: Millipore

[22] = biological target: T22, H3 (Homo sapiens, UniProt Q9Y5N1); assay: FLIPR functional screen; type: cell-based; conditions: antagonist mode
T22 construct: Millipore

[23] = biological target: T23, ETA (Homo sapiens, UniProt P25101); assay: FLIPR functional screen; type: cell-based; conditions: antagonist mode
T23 construct: Millipore

[24] = biological target: T24, A3 (Homo sapiens, UniProt P0DMS8); assay: FLIPR functional screen; type: cell-based; conditions: antagonist mode
T24 construct: purchased Millipore (outsourced screen)

[25] = biological target: T25, SST5 (Homo sapiens, UniProt P35346); assay: FLIPR functional screen; type: cell-based; conditions: antagonist mode
T25 construct: Millipore

[26] = biological target: T26, VPAC2 (Homo sapiens, UniProt P41587); assay: FLIPR functional screen; type: cell-based; conditions: antagonist mode
T26 construct: Millipore

[27] = biological target: T27, C5AR (Homo sapiens, UniProt P21730); assay: FLIPR functional screen; type: cell-based; conditions: antagonist mode
T27 construct: Millipore

[28] = biological target: T28, GPR103 (Homo sapiens, UniProt Q96P65); assay: FLIPR functional screen; type: cell-based; conditions: antagonist mode
T28 construct: Millipore

[29] = biological target: T29, TP (Homo sapiens, UniProt P21731); assay: FLIPR functional screen; type: cell-based; conditions: antagonist mode
T29 construct: Millipore

[30] = biological target: T30, BLT1 (Homo sapiens, UniProt Q15722); assay: FLIPR functional screen; type: cell-based; conditions: antagonist mode
T30 construct: Millipore

[31] = biological target: T31, BB1 (Homo sapiens, UniProt P28336); assay: FLIPR functional screen; type: cell-based; conditions: antagonist mode
T31 construct: Millipore

[32] = biological target: T32, SECRETIN (Homo sapiens, UniProt P47872); assay: FLIPR functional screen; type: cell-based; conditions: antagonist mode
T32 construct: Millipore

[33] = biological target: T33, GLP1 (Homo sapiens, UniProt P43220); assay: FLIPR functional screen; type: cell-based; conditions: antagonist mode
T33 construct: Millipore

[34] = biological target: T34, CCK1 (Homo sapiens, UniProt P32238); assay: FLIPR functional screen; type: cell-based; conditions: antagonist mode
T34 construct: Millipore
T34 sequence (P32238 whole entry): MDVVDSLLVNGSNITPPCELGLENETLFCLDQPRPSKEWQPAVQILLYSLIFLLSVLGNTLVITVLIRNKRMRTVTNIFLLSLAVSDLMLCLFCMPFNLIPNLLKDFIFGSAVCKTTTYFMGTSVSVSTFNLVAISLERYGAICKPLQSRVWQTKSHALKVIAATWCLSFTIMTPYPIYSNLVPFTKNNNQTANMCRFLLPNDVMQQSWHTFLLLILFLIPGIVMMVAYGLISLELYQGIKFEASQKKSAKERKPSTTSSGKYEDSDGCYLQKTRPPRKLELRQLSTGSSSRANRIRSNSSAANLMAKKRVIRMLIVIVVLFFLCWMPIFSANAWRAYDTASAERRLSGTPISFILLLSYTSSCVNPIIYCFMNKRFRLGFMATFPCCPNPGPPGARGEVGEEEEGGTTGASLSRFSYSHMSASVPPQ

T9 sequence (P35408 whole entry): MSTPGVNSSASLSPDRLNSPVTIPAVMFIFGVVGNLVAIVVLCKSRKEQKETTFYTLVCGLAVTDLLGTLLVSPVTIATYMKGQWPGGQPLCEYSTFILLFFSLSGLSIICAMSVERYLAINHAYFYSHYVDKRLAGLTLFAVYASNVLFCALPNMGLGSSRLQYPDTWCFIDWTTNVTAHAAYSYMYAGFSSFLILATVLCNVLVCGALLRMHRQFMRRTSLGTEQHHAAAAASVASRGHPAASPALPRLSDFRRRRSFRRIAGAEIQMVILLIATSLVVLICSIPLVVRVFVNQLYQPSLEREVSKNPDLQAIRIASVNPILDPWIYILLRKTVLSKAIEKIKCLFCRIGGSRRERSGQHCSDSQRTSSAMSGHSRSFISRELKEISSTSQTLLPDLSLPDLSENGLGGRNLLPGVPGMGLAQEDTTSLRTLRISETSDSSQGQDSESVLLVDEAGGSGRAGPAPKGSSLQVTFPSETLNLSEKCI
T15 sequence (Q15722 whole entry): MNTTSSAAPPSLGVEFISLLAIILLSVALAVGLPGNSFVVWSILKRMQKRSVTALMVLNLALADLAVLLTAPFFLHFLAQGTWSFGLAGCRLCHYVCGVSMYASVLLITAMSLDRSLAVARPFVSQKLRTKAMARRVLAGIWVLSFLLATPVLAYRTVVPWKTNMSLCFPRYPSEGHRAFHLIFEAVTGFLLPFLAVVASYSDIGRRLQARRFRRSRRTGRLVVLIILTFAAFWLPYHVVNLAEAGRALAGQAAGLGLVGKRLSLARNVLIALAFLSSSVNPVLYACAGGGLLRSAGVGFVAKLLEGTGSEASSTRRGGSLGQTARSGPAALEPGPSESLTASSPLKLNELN
T13 sequence (Q9Y271 whole entry): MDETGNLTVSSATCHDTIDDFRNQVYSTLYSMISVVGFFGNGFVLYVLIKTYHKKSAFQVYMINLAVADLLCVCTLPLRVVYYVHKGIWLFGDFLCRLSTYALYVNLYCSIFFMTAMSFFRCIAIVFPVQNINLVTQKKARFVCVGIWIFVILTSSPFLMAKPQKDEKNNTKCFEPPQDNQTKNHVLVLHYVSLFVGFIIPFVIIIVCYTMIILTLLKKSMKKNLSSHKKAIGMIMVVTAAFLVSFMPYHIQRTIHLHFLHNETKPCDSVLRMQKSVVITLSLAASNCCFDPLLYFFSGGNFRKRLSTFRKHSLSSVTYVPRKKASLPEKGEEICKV
T16 sequence (P41143 whole entry, species assumed): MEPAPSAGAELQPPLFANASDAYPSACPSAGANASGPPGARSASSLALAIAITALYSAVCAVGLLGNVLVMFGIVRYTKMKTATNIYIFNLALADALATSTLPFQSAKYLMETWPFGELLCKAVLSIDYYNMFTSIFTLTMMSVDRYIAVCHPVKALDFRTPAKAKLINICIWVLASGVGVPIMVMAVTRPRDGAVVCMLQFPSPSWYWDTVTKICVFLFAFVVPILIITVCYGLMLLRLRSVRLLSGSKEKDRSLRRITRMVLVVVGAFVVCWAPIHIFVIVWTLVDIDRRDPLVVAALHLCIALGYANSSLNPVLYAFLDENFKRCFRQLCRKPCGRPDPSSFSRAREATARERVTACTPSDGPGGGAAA
T6 sequence (P41145 whole entry, species assumed): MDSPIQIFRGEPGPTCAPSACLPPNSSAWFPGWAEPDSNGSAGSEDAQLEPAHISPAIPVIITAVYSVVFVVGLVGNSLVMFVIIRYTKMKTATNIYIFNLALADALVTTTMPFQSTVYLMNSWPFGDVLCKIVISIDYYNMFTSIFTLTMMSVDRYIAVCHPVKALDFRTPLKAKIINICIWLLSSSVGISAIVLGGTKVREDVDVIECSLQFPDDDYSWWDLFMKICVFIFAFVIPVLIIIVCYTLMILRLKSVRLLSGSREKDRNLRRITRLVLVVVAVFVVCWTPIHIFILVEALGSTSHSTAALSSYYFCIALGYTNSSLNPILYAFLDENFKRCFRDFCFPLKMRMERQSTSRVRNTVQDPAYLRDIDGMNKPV
T4 sequence (P34972 whole entry, species assumed): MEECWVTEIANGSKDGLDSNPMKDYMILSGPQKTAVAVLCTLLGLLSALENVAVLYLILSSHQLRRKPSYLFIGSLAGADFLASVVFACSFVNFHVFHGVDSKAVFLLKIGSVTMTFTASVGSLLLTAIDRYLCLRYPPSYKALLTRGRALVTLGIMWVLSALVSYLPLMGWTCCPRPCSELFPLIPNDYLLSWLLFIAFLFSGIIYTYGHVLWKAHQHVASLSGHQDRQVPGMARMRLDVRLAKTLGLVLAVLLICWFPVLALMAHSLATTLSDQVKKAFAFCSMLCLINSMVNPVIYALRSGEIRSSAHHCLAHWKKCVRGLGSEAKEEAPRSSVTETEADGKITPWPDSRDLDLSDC
T33 sequence (P43220 24-463): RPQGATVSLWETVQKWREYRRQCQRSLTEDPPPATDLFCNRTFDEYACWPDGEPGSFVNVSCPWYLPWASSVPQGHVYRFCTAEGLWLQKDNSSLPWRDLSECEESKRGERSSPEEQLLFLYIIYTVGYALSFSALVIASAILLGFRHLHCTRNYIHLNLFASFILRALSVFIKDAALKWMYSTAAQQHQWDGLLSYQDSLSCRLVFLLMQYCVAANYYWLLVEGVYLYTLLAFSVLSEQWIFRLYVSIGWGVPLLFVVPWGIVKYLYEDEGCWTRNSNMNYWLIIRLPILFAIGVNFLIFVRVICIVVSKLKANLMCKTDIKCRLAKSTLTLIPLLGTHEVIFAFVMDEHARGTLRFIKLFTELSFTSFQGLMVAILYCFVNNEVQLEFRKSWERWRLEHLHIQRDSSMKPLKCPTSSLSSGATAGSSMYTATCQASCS
T10 sequence (P08908 whole entry): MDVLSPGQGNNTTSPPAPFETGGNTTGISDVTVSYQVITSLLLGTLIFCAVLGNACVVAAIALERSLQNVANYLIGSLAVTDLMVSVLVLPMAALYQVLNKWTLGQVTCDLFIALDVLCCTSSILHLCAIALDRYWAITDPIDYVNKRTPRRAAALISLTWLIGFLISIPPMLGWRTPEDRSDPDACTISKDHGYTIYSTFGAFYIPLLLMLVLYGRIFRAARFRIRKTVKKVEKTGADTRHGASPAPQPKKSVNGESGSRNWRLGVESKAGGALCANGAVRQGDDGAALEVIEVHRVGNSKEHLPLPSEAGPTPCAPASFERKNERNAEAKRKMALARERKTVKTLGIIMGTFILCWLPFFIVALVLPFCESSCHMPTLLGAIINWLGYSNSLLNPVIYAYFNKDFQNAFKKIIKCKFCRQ
T14 sequence (P24530 27-442, species assumed): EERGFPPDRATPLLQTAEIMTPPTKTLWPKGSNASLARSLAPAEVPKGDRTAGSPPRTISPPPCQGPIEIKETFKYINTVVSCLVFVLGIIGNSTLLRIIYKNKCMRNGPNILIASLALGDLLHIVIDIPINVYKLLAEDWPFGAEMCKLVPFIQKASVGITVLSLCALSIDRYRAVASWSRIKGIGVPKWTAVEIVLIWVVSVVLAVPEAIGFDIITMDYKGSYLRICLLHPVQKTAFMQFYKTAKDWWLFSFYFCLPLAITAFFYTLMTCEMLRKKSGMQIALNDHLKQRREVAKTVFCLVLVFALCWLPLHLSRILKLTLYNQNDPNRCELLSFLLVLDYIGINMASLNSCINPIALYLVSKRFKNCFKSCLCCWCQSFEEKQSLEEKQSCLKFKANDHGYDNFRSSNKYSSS
T1 sequence (Q15743 whole entry, species assumed): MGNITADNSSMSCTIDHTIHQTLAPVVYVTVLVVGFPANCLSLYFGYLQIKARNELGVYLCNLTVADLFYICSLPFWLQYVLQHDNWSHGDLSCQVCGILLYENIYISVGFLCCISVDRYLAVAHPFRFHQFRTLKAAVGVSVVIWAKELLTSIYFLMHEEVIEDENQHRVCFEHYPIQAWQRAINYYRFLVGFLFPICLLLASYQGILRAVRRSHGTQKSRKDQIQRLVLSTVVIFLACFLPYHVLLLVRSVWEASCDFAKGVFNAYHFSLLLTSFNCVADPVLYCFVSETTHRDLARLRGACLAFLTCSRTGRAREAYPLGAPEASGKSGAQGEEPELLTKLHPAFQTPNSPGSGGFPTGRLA
T26 sequence (P41587 24-438): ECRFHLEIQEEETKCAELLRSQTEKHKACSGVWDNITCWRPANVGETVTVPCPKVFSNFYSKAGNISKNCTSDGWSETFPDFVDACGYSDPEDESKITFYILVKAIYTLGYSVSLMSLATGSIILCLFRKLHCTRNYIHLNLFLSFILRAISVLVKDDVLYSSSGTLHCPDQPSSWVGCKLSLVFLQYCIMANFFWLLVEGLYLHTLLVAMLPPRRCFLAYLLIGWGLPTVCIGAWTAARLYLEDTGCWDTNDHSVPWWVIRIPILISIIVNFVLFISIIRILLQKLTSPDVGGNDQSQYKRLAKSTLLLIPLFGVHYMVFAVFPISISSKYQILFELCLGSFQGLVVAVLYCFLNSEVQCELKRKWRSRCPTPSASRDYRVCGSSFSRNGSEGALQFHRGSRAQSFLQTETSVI
T30 sequence (Q15722 whole entry, species assumed): as the sequence (Q15722 whole entry) above
T5 sequence (Q9Y271 whole entry, species assumed): as the sequence (Q9Y271 whole entry) above

**Q.** For `CCN1C(=O)N2Cc3cc(OC)cc(OC)c3[C@@H](C)C=C2C12CCN(Cc1cccn1C)CC2` [ER-819924-01], which inhibition at 1 µM [1] is on record?
**A.** Its inhibition at 1 µM is 13.4%.

**Q.** What about the inhibition at 1 µM [2] of the same compound?
**A.** The inhibition at 1 µM was 10.1%.

**Q.** What about the inhibition at 1 µM [3] of the same compound?
**A.** Its inhibition at 1 µM is 4.6%.

**Q.** What about the inhibition at 1 µM [4] of the same compound?
**A.** The inhibition at 1 µM was 9.3%.

**Q.** And the inhibition at 1 µM [5]?
**A.** Its inhibition at 1 µM is -1.6%.

**Q.** And the inhibition at 1 µM [6]?
**A.** Its inhibition at 1 µM is 6.2%.

**Q.** What about the inhibition at 1 µM [7] of the same compound?
**A.** Its inhibition at 1 µM is 3%.

**Q.** And the inhibition at 1 µM [8]?
**A.** Its inhibition at 1 µM is -4.9%.

**Q.** What about the “% INHIBITION” value ([9]; CONC. 0.1 μm) of the same compound?
**A.** The value was 21%.

**Q.** What about the “% INHIBITION” value ([9]; CONC. 1 μm) of the same compound?
**A.** The value was 71%.

**Q.** What about the “binding selectivity for EP4 over other EP/prostanoid/leukotriene receptors” value ([9]; competitive radioligand binding assay) of the same compound?
**A.** Its value is “selectively bind to EP4”.

**Q.** And the inhibition at 1 µM [10]?
**A.** Its inhibition at 1 µM is -1.6%.

**Q.** And the inhibition at 1 µM [11]?
**A.** The inhibition at 1 µM was -15.3%.

**Q.** What about the inhibition at 1 µM [12] of the same compound?
**A.** The inhibition at 1 µM was -38.6%.

**Q.** And the “% INHIBITION” value ([13]; CONC. 0.1 μm)?
**A.** Its value is −1%.

**Q.** What about the “% INHIBITION” value ([13]; CONC. 1 μm) of the same compound?
**A.** Its value is −5%.

**Q.** And the inhibition at 1 µM [14]?
**A.** The inhibition at 1 µM was 6.2%.

**Q.** What about the “% INHIBITION” value ([15]; CONC. 0.1 μm) of the same compound?
**A.** Its value is −12%.

**Q.** What about the “% INHIBITION” value ([15]; CONC. 1 μm) of the same compound?
**A.** Its value is −11%.

**Q.** What about the inhibition at 1 µM [16] of the same compound?
**A.** The inhibition at 1 µM was 5.7%.

**Q.** And the inhibition at 1 µM [17]?
**A.** The inhibition at 1 µM was -4.3%.

**Q.** And the inhibition at 1 µM [18]?
**A.** Its inhibition at 1 µM is 1%.

**Q.** And the inhibition at 1 µM [19]?
**A.** Its inhibition at 1 µM is -4.6%.

**Q.** What about the inhibition at 1 µM [20] of the same compound?
**A.** Its inhibition at 1 µM is -2%.

**Q.** And the inhibition at 1 µM [21]?
**A.** The inhibition at 1 µM was 0.5%.

**Q.** What about the inhibition at 1 µM [22] of the same compound?
**A.** The inhibition at 1 µM was -31.5%.

**Q.** What about the inhibition at 1 µM [23] of the same compound?
**A.** The inhibition at 1 µM was 9%.

**Q.** And the inhibition at 1 µM [24]?
**A.** The inhibition at 1 µM was 10.6%.

**Q.** What about the inhibition at 1 µM [25] of the same compound?
**A.** Its inhibition at 1 µM is 0.1%.

**Q.** And the inhibition at 1 µM [26]?
**A.** The inhibition at 1 µM was -3.7%.

**Q.** What about the inhibition at 1 µM [27] of the same compound?
**A.** The inhibition at 1 µM was 6.2%.

**Q.** What about the inhibition at 1 µM [28] of the same compound?
**A.** The inhibition at 1 µM was 0.4%.

**Q.** And the inhibition at 1 µM [29]?
**A.** Its inhibition at 1 µM is 1.8%.

**Q.** What about the inhibition at 1 µM [30] of the same compound?
**A.** The inhibition at 1 µM was 2.2%.

**Q.** And the inhibition at 1 µM [31]?
**A.** Its inhibition at 1 µM is 7.1%.

**Q.** What about the inhibition at 1 µM [32] of the same compound?
**A.** Its inhibition at 1 µM is 11.3%.

**Q.** And the inhibition at 1 µM [33]?
**A.** Its inhibition at 1 µM is 10.6%.

**Q.** What about the inhibition at 1 µM [34] of the same compound?
**A.** Its inhibition at 1 µM is 13%.

From patent US20100305098A1, “METHODS OF USE” (priority 2007, published 2010)
